Consider 15 molecules from patent US20120028888A1, “APJ RECEPTOR COMPOUNDS” (priority 2008, published 2012).

B1: Compound 11 Pal-FRSSREKRRSADIFI-Amide (peptide)
peptide: Palmitoyl-FRSSREKRRSADIFI-NH2
SMILES: CCCCCCCCCCCCCCCC(=O)N[C@@H](Cc1ccccc1)C(=O)N[C@@H](CCCNC(=N)N)C(=O)N[C@@H](CO)C(=O)N[C@@H](CO)C(=O)N[C@@H](CCCNC(=N)N)C(=O)N[C@@H](CCC(=O)O)C(=O)N[C@@H](CCCCN)C(=O)N[C@@H](CCCNC(=N)N)C(=O)N[C@@H](CCCNC(=N)N)C(=O)N[C@@H](CO)C(=O)N[C@@H](C)C(=O)N[C@@H](CC(=O)O)C(=O)N[C@H](C(=O)N[C@@H](Cc1ccccc1)C(=O)N[C@H](C(N)=O)[C@@H](C)CC)[C@@H](C)CC
B2: Compound 12 Pal-TVFRSSREKRRSADIFI-Amide (peptide)
peptide: Palmitoyl-TVFRSSREKRRSADIFI-NH2
SMILES: CCCCCCCCCCCCCCCC(=O)N[C@H](C(=O)N[C@H](C(=O)N[C@@H](Cc1ccccc1)C(=O)N[C@@H](CCCNC(=N)N)C(=O)N[C@@H](CO)C(=O)N[C@@H](CO)C(=O)N[C@@H](CCCNC(=N)N)C(=O)N[C@@H](CCC(=O)O)C(=O)N[C@@H](CCCCN)C(=O)N[C@@H](CCCNC(=N)N)C(=O)N[C@@H](CCCNC(=N)N)C(=O)N[C@@H](CO)C(=O)N[C@@H](C)C(=O)N[C@@H](CC(=O)O)C(=O)N[C@H](C(=O)N[C@@H](Cc1ccccc1)C(=O)N[C@H](C(N)=O)[C@@H](C)CC)[C@@H](C)CC)C(C)C)[C@@H](C)O
B3: Compound 96 Pal-QTIAGHFRKERIEGLRKRRRLLA-Amide (peptide)
peptide: Palmitoyl-QTIAGHFRKERIEGLRKRRRLLA-NH2
SMILES: CCCCCCCCCCCCCCCC(=O)N[C@@H](CCC(N)=O)C(=O)N[C@H](C(=O)N[C@H](C(=O)N[C@@H](C)C(=O)NCC(=O)N[C@@H](Cc1c[nH]cn1)C(=O)N[C@@H](Cc1ccccc1)C(=O)N[C@@H](CCCNC(=N)N)C(=O)N[C@@H](CCCCN)C(=O)N[C@@H](CCC(=O)O)C(=O)N[C@@H](CCCNC(=N)N)C(=O)N[C@H](C(=O)N[C@@H](CCC(=O)O)C(=O)NCC(=O)N[C@@H](CC(C)C)C(=O)N[C@@H](CCCNC(=N)N)C(=O)N[C@@H](CCCCN)C(=O)N[C@@H](CCCNC(=N)N)C(=O)N[C@@H](CCCNC(=N)N)C(=O)N[C@@H](CCCNC(=N)N)C(=O)N[C@@H](CC(C)C)C(=O)N[C@@H](CC(C)C)C(=O)N[C@@H](C)C(N)=O)[C@@H](C)CC)[C@@H](C)CC)[C@@H](C)O

Non-standard residues stand in square brackets, D forms with d. Residues, ends and D or L forms follow the SMILES beside them. ξ: configuration not given here. *: point of attachment. Palmitoyl = CCCCCCCCCCCCCCCC(=O)*; X1 = CCCCCCCCCCCOCCCC(=O)*; ξR = N=C(N)NCCCC(N)C(=O)O A value given as a limit tells only on which side of the number the result lay.

The first assay has as its system mouse heart function. The assay is described as follows: Langendorff heart preparation, developed pressure. The settings on record: isolated perfused mouse heart, 15 minutes. The class given is ex vivo. How it is done: A pressure-sensing balloon catheter was inserted in the LV cavity to record changes in the developed pressure. Heart function was assessed by measuring standard parameters such as heart rate, mean peak systolic pressure, mean end diastolic pressure, developed pressure, dP/dt max, and dP/dt min.
Regarding apelin-13 [reference compound], the “effect on mouse heart function (developed pressure, inotropic effect)” value was “increase in developed pressure”.

For the next assay, the target named is APJ receptor (Homo sapiens (Human), UniProt P35414). Put plainly: cell-based or functional assay.
Conditions: not given
As for B1, the “EC50 value (nM), HTRF cAMP assay” value was at most 500 nM.
Still for that read-out and setting: to B2 belongs at most 500 nM.
In the case of B3, the “EC50 value (nM), HTRF cAMP assay” value was at most 500 nM.

Another assay has as its target T1, Gi-coupled receptor APJ (HEK cells stably expressing the APJ receptor) (Homo sapiens, UniProt P35414).
T1 construct: expressed in transfected cells; host or cells: HEK cells stably expressing APJ
T1 sequence (P35414 1-380): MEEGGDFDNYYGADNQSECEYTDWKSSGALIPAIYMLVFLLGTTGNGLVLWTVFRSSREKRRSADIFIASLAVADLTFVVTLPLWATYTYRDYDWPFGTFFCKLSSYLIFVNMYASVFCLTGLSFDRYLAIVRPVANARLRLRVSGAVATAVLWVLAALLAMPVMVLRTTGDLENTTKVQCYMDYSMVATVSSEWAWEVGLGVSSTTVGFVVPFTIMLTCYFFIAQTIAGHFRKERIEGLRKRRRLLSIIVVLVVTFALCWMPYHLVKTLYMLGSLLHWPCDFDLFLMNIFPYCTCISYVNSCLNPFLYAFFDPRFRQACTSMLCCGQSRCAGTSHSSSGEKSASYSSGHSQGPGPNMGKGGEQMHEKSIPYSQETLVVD
Put plainly: HTRF cAMP assay: inhibition of NKH477 stimulated increase in cAMP. The class given is cell-based. The settings on record: read-out: EC50 value (nM), SEM. An excerpt: HTRF (homogeneous time resolved fluorescence) is a technology developed by Cisbio Bioassays based on TR-FRET (time-resolved fluorescence resonance energy transfer). Cisbio Bioassays has developed a wide selection of HTRF-based assays compatible with whole cells, thereby enabling functional assays to run under more physiological conditions. The IP-One assays are competitive immunoassays using cryptate-labeled anti-IPI monoclonal antibody and d2-labeled IP1. IP1 is a relatively stable downstream metabolite of IP3, and accumulates in cells following Gq receptor activation.
cAMP kits based on a competitive immunoassay using cryptate-labeled anti-cAMP antibody and d2-labeled cAMP were used to assay the effects of APJ compounds of the present invention. This assay measures the increase in intracellular cAMP upon Gs-coupled receptor activation as well as decrease in forskolin (or a more soluble version of forskolin—NKH477) stimulated increase in cAMP upon Gi-coupled receptor activation.
As to `CCCCCCCCCCCOCCCC(=O)N[C@H](C(=O)N[C@H](C(=O)N[C@@H](Cc1ccccc1)C(=O)N[C@@H](CCCNC(=N)N)C(=O)N[C@@H](CO)C(=O)N[C@@H](CO)C(=O)N[C@@H](CCCNC(=N)N)C(=O)N[C@@H](CCC(=O)O)C(=O)N[C@@H](CCCCN)C(=O)N[C@@H](CCCNC(=N)N)C(=O)N[C@@H](CCCNC(=N)N)C(=O)N[C@@H](CO)C(=O)N[C@@H](C)C(=O)N[C@@H](CC(=O)O)C(=O)N[C@H](C(=O)N[C@@H](Cc1ccccc1)C(=O)N[C@H](C(N)=O)[C@@H](C)CC)[C@@H](C)CC)C(C)C)[C@@H](C)O` [Compound 60] (X1-TVFRSSREKRRSADIFI-NH2), the EC50 is 1 to 500 nM.
In the case of `CCCCCCCCCCCCCCCC(=O)N[C@@H](CCCNC(=N)N)C(=O)N1CCC[C@H]1C(=O)N[C@H](C(=O)N[C@@H](C)C(=O)N[C@@H](CC(N)=O)C(=O)N[C@@H](C)C(=O)N[C@@H](CCCNC(=N)N)C(=O)N[C@@H](CC(C)C)C(=O)N[C@@H](CCCNC(=N)N)C(=O)N[C@@H](CC(C)C)C(=O)N[C@@H](CCCNC(=N)N)C(=O)N[C@H](C(=O)N[C@@H](CO)C(=O)NCC(N)=O)C(C)C)C(C)C` [Compound 75] (Palmitoyl-RPVANARLRLRVSG-NH2), the EC50 was over 10000 nM.
Still for that read-out and setting: to `CCCCCCCCCCCCCCCC(=O)N[C@H](C(=O)N[C@@H](CCCNC(=N)N)C(=O)N1CCC[C@H]1C(=O)N[C@H](C(=O)N[C@@H](C)C(=O)N[C@@H](CC(N)=O)C(=O)N[C@@H](C)C(=O)N[C@@H](CCCNC(=N)N)C(=O)N[C@@H](CC(C)C)C(=O)N[C@@H](CCCNC(=N)N)C(=O)N[C@@H](CC(C)C)C(=O)N[C@@H](CCCNC(=N)N)C(=O)N[C@H](C(=O)N[C@@H](CO)C(=O)NCC(N)=O)C(C)C)C(C)C)C(C)C` [Compound 76] (Palmitoyl-VRPVANARLRLRVSG-NH2) belongs over 10000 nM; to `CCCCCCCCCCCCCCCC(=O)N[C@H](C(=O)N[C@H](C(=O)N[C@@H](CCCNC(=N)N)C(=O)N1CCC[C@H]1C(=O)N[C@H](C(=O)N[C@@H](C)C(=O)N[C@@H](CC(N)=O)C(=O)N[C@@H](C)C(=O)N[C@@H](CCCNC(=N)N)C(=O)N[C@@H](CC(C)C)C(=O)N[C@@H](CCCNC(=N)N)C(=O)N[C@@H](CC(C)C)C(=O)N[C@@H](CCCNC(=N)N)C(=O)N[C@H](C(=O)N[C@@H](CO)C(=O)NCC(N)=O)C(C)C)C(C)C)C(C)C)[C@@H](C)CC` [Compound 77] (Palmitoyl-IVRPVANARLRLRVSG-NH2), over 10000 nM.
Regarding `CCCCCCCCCCCCCCCC(=O)N[C@@H](C)C(=O)N[C@H](C(=O)N[C@H](C(=O)N[C@@H](CCCNC(=N)N)C(=O)N1CCC[C@H]1C(=O)N[C@H](C(=O)N[C@@H](C)C(=O)N[C@@H](CC(N)=O)C(=O)N[C@@H](C)C(=O)N[C@@H](CCCNC(=N)N)C(=O)N[C@@H](CC(C)C)C(=O)N[C@@H](CCCNC(=N)N)C(=O)N[C@@H](CC(C)C)C(=O)N[C@@H](CCCNC(=N)N)C(=O)N[C@H](C(=O)N[C@@H](CO)C(=O)NCC(N)=O)C(C)C)C(C)C)C(C)C)[C@@H](C)CC` [Compound 78] (Palmitoyl-AIVRPVANARLRLRVSG-NH2), the EC50 is over 10000 nM.
Turning to `CCCCCCCCCCCCCCCC(=O)N[C@H](C(=O)N[C@@H](CCCNC(=N)N)C(=O)N1CCC[C@H]1C(=O)N[C@H](C(=O)N[C@@H](C)C(=O)N[C@@H](CC(N)=O)C(=O)N[C@@H](C)C(=O)N[C@@H](CCCNC(=N)N)C(=O)N[C@@H](CC(C)C)C(=O)NC(CCCNC(=N)N)C(N)=O)C(C)C)C(C)C` (stereo partly drawn) [Compound 80] (Palmitoyl-VRPVANARL[ξR]-NH2), the EC50 is over 10000 nM.
Take `CCCCCCCCCCCCCCCC(=O)N[C@H](C(=O)N[C@@H](CCCNC(=N)N)C(=O)N1CCC[C@H]1C(=O)N[C@H](C(=O)N[C@@H](C)C(=O)N[C@@H](CC(N)=O)C(=O)N[C@@H](C)C(=O)N[C@@H](CCCNC(=N)N)C(=O)N[C@@H](CC(C)C)C(N)=O)C(C)C)C(C)C` [Compound 81] (Palmitoyl-VRPVANARL-NH2): the EC50 was over 10000 nM.
Still for that read-out and setting: to `CCCCCCCCCCCCCCCC(=O)N[C@H](C(=O)N[C@@H](CCCNC(=N)N)C(=O)N1CCC[C@H]1C(=O)N[C@H](C(=O)N[C@@H](C)C(=O)N[C@@H](CC(N)=O)C(=O)N[C@@H](C)C(=O)N[C@@H](CCCNC(=N)N)C(=O)N[C@@H](CC(C)C)C(=O)N[C@@H](CCCNC(=N)N)C(=O)N[C@@H](CC(C)C)C(=O)N[C@@H](CCCNC(=N)N)C(N)=O)C(C)C)C(C)C` [Compound 83] (Palmitoyl-VRPVANARLRLR-NH2) belongs over 10000 nM; to `CCCCCCCCCCCCCCCC(=O)N[C@H](C(=O)N[C@@H](CCCNC(=N)N)C(=O)N1CCC[C@H]1C(=O)N[C@H](C(=O)N[C@@H](C)C(=O)N[C@@H](CC(N)=O)C(=O)N[C@@H](C)C(=O)N[C@@H](CCCNC(=N)N)C(=O)N[C@@H](CC(C)C)C(=O)NC(CCCNC(=N)N)C(=O)N[C@@H](CC(C)C)C(N)=O)C(C)C)C(C)C` (stereo partly drawn) [Compound 84] (Palmitoyl-VRPVANARL[ξR]L-NH2), over 10000 nM.
Still for that read-out and setting: to `CCCCCCCCCCCCCCCC(=O)N[C@H](C(=O)N[C@@H](CCCNC(=N)N)C(=O)N1CCC[C@H]1C(=O)N[C@H](C(=O)N[C@@H](C)C(=O)N[C@@H](CC(N)=O)C(=O)N[C@@H](C)C(=O)N[C@@H](CCCNC(=N)N)C(=O)N[C@@H](CC(C)C)C(=O)N[C@@H](CCCNC(=N)N)C(=O)N[C@@H](CC(C)C)C(=O)N[C@@H](CCCNC(=N)N)C(=O)N[C@H](C(N)=O)C(C)C)C(C)C)C(C)C` [Compound 85] (Palmitoyl-VRPVANARLRLRV-NH2) belongs over 10000 nM; to `CCCCCCCCCCCCCCCC(=O)N[C@H](C(=O)N[C@@H](CCCNC(=N)N)C(=O)N1CCC[C@H]1C(=O)N[C@H](C(=O)N[C@@H](C)C(=O)N[C@@H](CC(N)=O)C(=O)N[C@@H](C)C(=O)N[C@@H](CCCNC(=N)N)C(=O)N[C@@H](CC(C)C)C(=O)N[C@@H](CCCNC(=N)N)C(=O)N[C@@H](CC(C)C)C(=O)N[C@@H](CCCNC(=N)N)C(=O)N[C@H](C(=O)N[C@@H](CO)C(N)=O)C(C)C)C(C)C)C(C)C` [Compound 86] (Palmitoyl-VRPVANARLRLRVS-NH2), over 10000 nM.
